Laboratory results reported in patent US20110053859A1, “METHODS TO REDUCE THE EFFECTS OF SLEEP DEPRIVATION” (The U. S. Government Respresented by the Department of …, priority 2007, published 2011).
Entries after “also recorded” stand apart in the source; their conditions may differ.

Key:
[1] = test system: sleep deprived (30-36 hrs) rhesus monkeys; assay: Multi-image DMS task after 30-36 hrs of sleep deprivation; assay type: in vivo, rhesus monkeys (Macaca mulatta)
Text: (§1) Subjects: All procedures were reviewed and approved by the Institutional Animal Care and Use Committee of Wake Forest University, and performed in accordance with established practices as described in the National Institutes of Health Guide for Care and Use of Laboratory Animals. Eight adult male rhesus monkeys (Macaca mulatta) weighing (8.0-11.0 kg) were utilized in this study. They were individually housed in stainless steel cages in temperature and humidity controlled colony rooms with lighting maintained on a 0600:1800 on:off schedule and fed a diet of monkey chow supplemented by fresh fruit to maintain daily monitored body weight. Fluid intake was restricted in time and amount such that a prescribed volume of an animal's normal daily fluid intake (80 ml/kg) was received either during the behavioral testing session, or within 2 hours of being returned to the home cage.
(§2) Behavioral Testing: Each monkey was exposed to 6 different testing conditions (Normal Vehicle, Alert orexin-A (IV and nasal), Sleep Deprivation, Sleep Deprivation+orexin-A (IV or nasal) which required 11-14 test sessions for each of the 8 monkeys. Animals were placed in a primate chair 1.5 meters in front of an LCD-front-projection screen for daily testing on a multi-image visual delayed match to sample (DMS) task (Porrino 2005) and performed 150-300 trials per session. Animals were trained to move a cursor tracked by a fluorescent marker attached to the back of the monkey's hand into the images by positioning the hand within a two dimensional coordinate system on the chair counter. Stimuli consisted of clip art images projected as 25 cm squares within a 3×3 position matrix onto a 1.0 meter×1.0 meter display. Responses to appropriate stimuli were rewarded with diluted fruit juice delivered via a sipper tube placed in front of the mouth. All animals were trained to a stable baseline on the DMS task in which delay varied randomly from (range 1-60 sec to 1-90 sec across animals) on a given trial, and the number of non-match stimuli (images) varied randomly from 2 to 8 in the Match phase of the task (Porrino 2005). As shown previously performance accuracy varied directly with duration of delay and number of nonmatch images (#images) presented in the Match phase (Hampson 2004, Porrino 2005). Each stimulus image (sample or nonmatch) was used on only one trial during a daily session and the sets of images were routinely changed every two weeks to maintain the trial unique feature of each session. Performance was monitored daily on the DMS task and there was no testing on weekends.
Sleep Deprivation Procedure: Sleep deprivation consisted of 30-36 hours of continuous sleep prevention supervised by laboratory personnel as previously verified using EEG recordings and sleep architecture to be a valid method of depriving animals of slow wave and REM sleep (Porrino 2005). Animals were maintained in a cage separate from their home cage in a continuously lighted room and kept awake with videos, music, occasional treats, gentle cage shaking, and interaction with technicians until their usual daily testing time. Animals were allowed 10 days between sleep deprivation episodes and were allowed to sleep after testing on each day following the 30-36 hr sleep deprivation episode. There were no residual effects of sleep deprivation on testing 24 hrs after the sleep deprivation procedure and animals returned to there normal sleep patterns on the next night following the sleep deprivation procedure.
Drug Administration: orexin-A (hypocretin-1) was mixed in saline for IV injections and in sterile water for nasal application. For IV administration orexin-A, (#003-30, Phoenix Pharmaceuticals, Mountain View, Calif.) was dissolved in physiological saline as a stock solution of 200 μg/ml which was then diluted in saline to inject 3 different doses of 2.5, 5.0 and 10.0 μg/kg via an indwelling catheter placed in either the femoral or jugular vein using a glass syringe. […]

drowsy monkeys = assay: DMS task in drowsy monkeys tested at the end of their normal day (4 PM); assay type: in vivo; settings: for DMS performance at normal testing time: normal testing conditions (alert), nasal; for DMS performance impairment (high load and extended delay trials) in drowsy condition: tested at 4 PM, nasal spray 1.0 μg
Method: Monkeys were tested at the end of their normal day 12 hr day at 4 PM, approximately 6-8 hours later than their normal testing period, in what can be considered a “drowsy” condition just prior to the onset of their dark cycle at 6 PM (Price 2003, Thomas 2000). At this time animals were impaired in performance relative to their normal testing times (high cognitive load: F(1.72)=8.49. p<0.001; extended delays-very high cognitive load: F(1.72)=5.84, p<0.01) during the day. […] F refers to an analysis of variance and the numbers in parentheses are the degrees of freedom, essentially the number of subjects and conditions (−1). The F value is the an indication of the effect size as measured by the analysis of variance, which is translated into a probability (p) value. This is a standard test for significance. […] Performance was decreased in animals administered nasal sprays of saline at this time of testing. Nasal orexin-A administered at 4 PM improved performance back to normal levels.

[2] = test system: alert non sleep deprived monkeys; assay: Multi-image delayed match to sample (DMS) task in alert non-sleep-deprived monkeys; assay type: in vivo, rhesus monkeys (Macaca mulatta); settings: for DMS performance vs saline control: IV 10.0 μg/kg, all 8 monkeys
Text: as §1, §2
Drug Administration: orexin-A (hypocretin-1) was mixed in saline for IV injections and in sterile water for nasal application. […]

sleep deprived monkeys = assay: PET (FDG) local cerebral glucose metabolism (CMRglc) during DMS task in sleep deprived monkeys; assay type: in vivo, rhesus monkeys (Macaca mulatta)
Text: Measurement of Local Rates of Cerebral Glucose Metabolism: Measurement of rates of cerebral glucose metabolism (CMRglc) were made in 8 monkeys in four different conditions: normal alert DMS task vehicle; DMS task-Sleep Deprivation vehicle; DMS task-Sleep Deprivation+orexin A (IV or nasal). All animals (n=8) were acclimated to the PET scan sessions to the extent that performance was not influenced by the injection or blood collection procedures. On the day of the scan the monkeys were placed in primate chairs and received a 30 sec injection of 3-5 mCi of [^18]-2-deoxy-2-fluoro-D-glucose (FDG). The DMS task was initiated 5-10 min later and was performed for a total of 40 minutes (80-100) trials while the FDG was incorporated and taken up by cells during performance in the DMS task. After 40 min animals were then anesthetized with ketamine (15 mg/kg, iv) and transported to the PET scanner. Following scan acquisition, monkeys were transported back to their home cages and continuously monitored until fully recovered. Effects of anesthesia and other factors associated with the PET scanning procedures were previously assessed and shown to not influence measures of isotope uptake.
To calculate glucose uptake tracer concentrations were measured in blood samples using an automated gamma well counter from three blood samples collected from the femoral vein at 10 minutes prior to tracer injection and 8 and 42 minutes post-injection. A population-averaged FDG blood curve (calculated for monkey) was scaled to the measured blood curve for the time period from injection to the end of the PET scan (Sokoloff 1977). Data were transformed to CMRglc based on the operational equation (Phelps 1979, Kennedy 1978). Rate constants (k1, k2, and k3) and lumped constant as determined in monkey by Kennedy et. al. 1978, along with a k4 value used in human studies (Phelps 1979). PET scans were performed with a General Electric (GE) Advance NXi PET scanner with a resolution of 4 mm and consisted of a five minute transmission scan acquired in 2D mode, followed by a ten minute emission scan acquired in 3D mode. The image reconstruction of the 3D data used the 3D-reprojection method with full quantitative corrections and smoothed using a 4 mm Gaussian filter transaxially and then segmented. Data were corrected for attenuation and reconstructed into 128 by 128 matrices using a Hanning filter with a 4mm cutoff transaxially and a ramp filter with an 8.5 mm cutoff axially.
PET data were analyzed with Statistical Parametric Mapping (SPM99) software (http://www.fil.ion.ucl.ac.uk/spm/) implemented in MATLAB (MathWorks, Natick, Mass.). Reconstructed images for each scan from each of the 8 monkeys were co-registered to corresponding structural MR images obtained on a 1.5-T MR scanner (GE Medical Systems, Milwaukee, Wis.) using automated image registration (Black 2001) and then transformed spatially into a standard space with an FDG template for rhesus monkeys constructed in our laboratory based on procedures of Black and colleagues (Paxinos 2003). Resultant images were smoothed using a 2 mm isotropic Gaussian kernel with a voxel size of 1×1×1 mm. Scans were normalized for differences in global activity by proportional scaling. Effects at each voxel were estimated according to the general linear model using the multi-subject conditions and covariates option in SPM. Statistical maps were created for comparisons of the […] different experimental conditions: Normal Alert Vehicle vs. Normal Alert orexin-A (IV or nasal); Sleep Deprivation vs. Normal Alert Vehicle; Sleep Deprivation vs. Sleep Deprivation+orexin-A (IV or nasal) and Sleep Deprivation+orexin-A IV vs. Sleep Deprivation+orexin-A nasal. Exploratory analyses used a minimum voxel height (magnitude) threshold of p<0.01 and a minimum cluster size of 50 voxels. […]

[3] = nasal vs IV in the same monkeys

## orexin-A: 33 residue neuropeptide hypocretin-1, residues 34-66 of human prepro-orexin; bought from Phoenix Pharmaceuticals (#003-30) (QPLPDCCRQKTCSCRLYELLHGAGNHAAGILTL; Orexin-A; UniProt O43612 34-66, looked up)
[1]; IV 10.0 μg/kg
  Monkeys that failed to show significant improvement on high load trials: one of 8
[1]; IV 5.0 and 10.0 μg/kg
  DMS performance on high cognitive load trials vs sleep deprived sessions: significantly improved relative to sleep deprived sessions
  DMS performance on low cognitive load trials vs alert condition: performed with the same efficiency as in the alert condition
  DMS performance vs alert non-sleep deprived levels: neither dose restored performance to alert non-sleep deprived levels
  DMS performance vs sleep deprived saline sessions: systematically increased performance; also recorded: partially reversed the detrimental effects on performance
[1]; nasal 1.0 μg vs IV 10.0 μg/kg
  DMS performance on low cognitive load trials, nasal vs IV: no difference between IV and nasal orexin-A
  DMS performance overall and on high cognitive load trials, nasal vs IV: significantly more effective
[1]; nasal 1.0 μg, overall, low and high load trials
  Overall DMS performance vs sleep deprivation saline: reversed the detrimental effects of 30-36 hr sleep deprivation
[1]; nasal spray 1.0 μg
  DMS performance on high cognitive load trials: elevated performance above normal alert levels
  DMS performance on low cognitive load trials: returning performance to normal alert levels
[1]; nasal spray 1.0 μg, extended delays (90-120 sec)
  DMS performance on extended delay trials: significantly above extended delay trials in both control sleep deprived and normal alert sessions; also recorded: significantly improved
Drowsy monkeys
  DMS performance at normal testing time: no effect on performance
  DMS performance impairment (high load and extended delay trials) in drowsy condition: reversed completely
Drowsy monkeys; listed as hyocretin
  DMS performance at normal testing time: no effect on cognitive performance
  DMS performance impairment (high load and extended delay trials) in drowsy condition: reverses cognitive deficits
[2]
  DMS performance vs saline control: slight but significant performance impairment
[2]; listed as Orexin-A
  DMS performance vs saline control: significant reduction
[2]; IV 2.5, 5.0 and 10.0 μg/kg
  DMS performance, dose relation: dose-related trend toward reduced performance
[2]; nasal spray 1.0 μg
  DMS performance in normal alert sessions: little or no effect on DMS performance; also recorded: no significant effects
Sleep deprived monkeys; IV 10.0 μg/kg
  Local CMRglc in DPFC vs sleep deprivation vehicle: significant increases
  Local CMRglc in DStr vs sleep deprivation vehicle: significant increases
  Local CMRglc in MTL vs sleep deprivation vehicle: significant decrease
  Local CMRglc in Thal vs sleep deprivation vehicle: significant increases
Sleep deprived monkeys; nasal spray mist 1.0 μg
  Local CMRglc in DPFC vs sleep deprivation vehicle: significantly elevated bilaterally
  Local CMRglc in MTL vs sleep deprivation vehicle: significant decreases
Sleep deprived monkeys; [3]
  Change of CMRglc in DPFC, nasal vs IV: greater increases in CMRglc bilaterally
  Change of CMRglc in DStr, nasal vs IV: greater increases in CMRglc bilaterally
  Change of CMRglc in MTL, nasal vs IV: decreased CMRglc
  Change of CMRglc in Thal, nasal vs IV: greater increases in CMRglc bilaterally
